Measured values as given in patent US20250120958A1, “Treatment of GM2 Gangliosidosis” (Azafaros B.V., priority 2022, published 2025).
“Also recorded” adds a separate entry of the source.

How the values were obtained:
[1] = target: T1, GCS (Homo sapiens, UniProt Q16739); assay: In vitro potency on GCS (glucosylceramide synthase); format: biochemical
T1 sequence (Q16739 1-394): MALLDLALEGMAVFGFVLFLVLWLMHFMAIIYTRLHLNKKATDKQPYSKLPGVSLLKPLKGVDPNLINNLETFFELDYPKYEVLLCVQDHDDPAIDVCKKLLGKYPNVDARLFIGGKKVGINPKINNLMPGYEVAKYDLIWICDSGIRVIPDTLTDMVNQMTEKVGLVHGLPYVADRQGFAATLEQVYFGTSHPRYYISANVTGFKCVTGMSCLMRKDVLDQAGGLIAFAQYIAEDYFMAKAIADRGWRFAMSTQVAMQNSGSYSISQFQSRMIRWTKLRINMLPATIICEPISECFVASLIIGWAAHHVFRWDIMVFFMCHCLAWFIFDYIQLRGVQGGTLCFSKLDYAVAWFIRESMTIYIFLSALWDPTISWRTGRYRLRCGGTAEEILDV

[2] = test system: Sandhoff mouse model (Hexb (−/−)); assay: Rotarod (RR) test in Sandhoff mice; format: in vivo; conditions: 16 weeks, 0.5-6 mg/kg/day
Experimental: In the ROT, all animals were on the day before the first testing, habituated to the device for 5 min using a continuous rotation speed of 4-40 rotations per minute (rpm). For the subsequent experiments, no prior habituation was conducted. In the actual testing procedure, the test was conducted over 5 min with an accelerating rotation of 4-40 rpm. Time was measured until the animals fell from the rod. Up to 5 animals could be tested simultaneously.
(§1) Behavioral assessments, including open field tests (OFT, ActiMot, TSE systems) and rotarod (RR, IITC Life Sciences), were also performed. The OFT assessed motor skills by placing a mouse into a square box with high walls for 5 minutes to record several parameters, including distance travelled (centimetres) and resting time in zone (seconds). Motor coordination of mice was assessed using a RR apparatus as per previously published protocol (Osmon, Vyas et al. 2018). Briefly, mice were placed on moving cylinders that accelerated from 4 to 40 rotations per minute (rpm) over 5 minutes. Each mouse was allowed three trials on the RR with a minimum of 10 minutes for rest in-between assessments. The highest number achieved was recorded for each of the following parameters: latency to fall, end rotations per minute and distance travelled.

[3] = test system: Hexb (+/−) mice; assay: Lifespan of heterozygous Hexb (+/−) mice under treatment; conditions: 3 mg/kg/day
Experimental: For all cohorts, drug and/or vehicle (control) were administered by gastric gavage once a day, between 8.00-12.00 am, from the age of 30 days until euthanasia.
In addition, animals heterozygous for the Hexb gene (+/−) were treated with vehicle or 3 mg/kg/day. Dosing continued until the animals reached their humane endpoints determined in a blinded fashion by the animal care staff and primarily consisted of the inability to reach sternal recumbency after 10 seconds and, if achieved, was additionally verified by the senior laboratory technician prior to the commencement of the animal being euthanized.

[4] = test system: GlcCer C16:0 and C18:0; assay: Target engagement: GlcCer C16:0 and C18:0 in the cerebellum; format: in vivo, mouse; conditions: treated vs untreated heterozygous or Hexb (−/−) mice
Description: Consistent with this action, the inhibition of GbA2 should result in an increase in GlcCer species in the brain where GbA2 plays a significant role.

[5] = test system: Sandhoff mouse model (Hexb (−/−)); assay: Open field test (OFT) in Sandhoff mice; format: in vivo; conditions: Hexb (−/−) mice vs vehicle, 0.5-6 mg/kg/day
Experimental: The OFT was conducted using a 40×40 cm sized apparatus in a quiet room and constant lighting conditions. Trial duration was 5 min. All trials were videotaped and later analysed using the tracking software Smart® Version 3.0.05. Measures included the average locomotion speed, walked distance and time spent in outer and inner zones of the field.
as §1

[6] = Dynamic vapour sorption (DVS); format: physicochemical
Description: In addition, the behaviour of the sample of the Form 3 crystalline form of compound of formula (I) obtained by equilibration with ethyl acetate was investigated under variable water vapour pressures (DVS measurement). At the highest relative humidity of 95% the sample absorbed about 1.2% of water that was released when the relative humidity was returned to the 50% RH. The amount of absorbed water is small, and the water sorption is reversible. […] For Form 2, at high relative humidity the sample absorbed about 18% of water; however, most of the absorbed water was released when the relative humidity was returned to the 50% RH.
Dynamic vapour sorption (DVS) measurements were performed with an SPS11-100n “Sorptions Prufsystem” from ProUmid (formerly “Projekt Messtechnik”), August-Nagel-Str. 23, 89079 Ulm (Germany). About 5 mg to 20 mg of sample was put into an aluminum sample pan. Humidity change rates of 5% per hour were used.

[7] = target: T2, GbA2 (Homo sapiens, UniProt Q9HCG7); assay: In vitro potency on GbA2 (non-lysosomal glucosylceramidase); format: biochemical
T2 sequence (Q9HCG7 1-927): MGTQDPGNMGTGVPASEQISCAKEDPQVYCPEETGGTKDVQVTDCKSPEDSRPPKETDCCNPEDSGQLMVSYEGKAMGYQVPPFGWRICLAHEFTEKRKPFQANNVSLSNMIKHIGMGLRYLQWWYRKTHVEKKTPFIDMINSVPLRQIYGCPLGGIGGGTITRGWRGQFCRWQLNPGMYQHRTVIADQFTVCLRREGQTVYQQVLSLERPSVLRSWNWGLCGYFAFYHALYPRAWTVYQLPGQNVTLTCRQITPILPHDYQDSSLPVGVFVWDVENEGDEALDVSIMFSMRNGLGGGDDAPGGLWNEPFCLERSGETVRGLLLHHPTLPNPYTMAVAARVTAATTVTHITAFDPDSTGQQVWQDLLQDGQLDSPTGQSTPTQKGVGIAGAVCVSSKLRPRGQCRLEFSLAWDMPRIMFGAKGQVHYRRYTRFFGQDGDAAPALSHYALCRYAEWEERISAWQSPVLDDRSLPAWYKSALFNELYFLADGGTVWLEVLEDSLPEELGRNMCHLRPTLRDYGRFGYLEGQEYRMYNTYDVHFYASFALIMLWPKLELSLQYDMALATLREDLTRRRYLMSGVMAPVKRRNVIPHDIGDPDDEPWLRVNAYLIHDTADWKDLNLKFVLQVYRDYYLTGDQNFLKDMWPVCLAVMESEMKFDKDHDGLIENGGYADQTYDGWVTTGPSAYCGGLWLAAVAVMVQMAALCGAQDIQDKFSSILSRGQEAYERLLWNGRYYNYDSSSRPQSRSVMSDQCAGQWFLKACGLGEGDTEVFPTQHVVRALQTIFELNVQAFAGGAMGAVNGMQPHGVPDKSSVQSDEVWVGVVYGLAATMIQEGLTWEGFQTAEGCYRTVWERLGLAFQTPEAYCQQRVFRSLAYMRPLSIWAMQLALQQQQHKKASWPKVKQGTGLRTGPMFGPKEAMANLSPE

OC[C@H]1[C@@H](O)[C@H](O)[C@@H](O)CN1CCCCCOCc1ccc(-c2ccccc2)c(F)c1 [AZ-3102]
inhibitory activity on GCS [1]: low nM | IC50 ([1]; in vitro potency): 2.54 nM | RR assessments, effect of treatment vs vehicle [2]: significant at all dose levels; also recorded: significantly improved | effect on lifespan compared to vehicle [3]: no effect on lifespan | increase in GlcCer C16:0 [4]: approximately 10 fold | increase in GlcCer C18:0 [4]: approximately 10 fold | OFT assessments (Total Distance Travelled, Resting Time in Zone) [5]: significantly improved | hygroscopicity ([6]; DVS): non-hygroscopic or substantially non-hygroscopic | water absorbed (DVS) ([6]; highest relative humidity of 95%, reversible): about 1.2% | inhibitory activity on GbA2 [7]: low nM | IC50 ([7]; in vitro potency): 0.692 nM
